Data from paper PMC6504913 (Angewandte Chemie (International ed. in English), 2018).

Columns and labels:
RAW 264.7 cells = test: LPS-induced NO2^– formation in macrophage RAW 264.7 cells; type: cell-based; conditions: 25 μM pretreatment 6 h, then LPS 1.0 μg/mL 18 h
[1] = type: physicochemical; conditions: pH 7.4 aqueous buffer

Molecule	effect on LPS-induced NO2^– production (RAW 264.7 cells)	stability in aqueous buffer (PNA formation) [1]
C1COCCN1.COc1ccc(P(=S)(S)N2CCOCC2)cc1 (centres unmarked) [GYY4137]	less pronounced effect	
n-butylthiocarbamate [n-BuTCM-1]		stable
